# Earlier results, collected in publication PMC9502836, “Zika Virus Inhibitors Based on a 1,3-Disubstituted 1H-Pyrazolo[3,4-d]pyrimidine-amine Scaffold” (Molecules, 2022).
# What was measured:
# luciferase reporter ZIKV = conditions: Huh7 cells, cited from earlier work
# ZIKV = system: ZIKV; parameters: method as in PMID 34206327; conditions: Huh7 cells, cited from earlier work; for EC50: read-out: Titer Reduction Assay EC50
# Huh7 cells = system: Huh7 cells; parameters: method as in PMID 34206327; conditions: cited from earlier work
SMILES,ZIKV Reporter Assay Inhibition (%) at 10 µM (luciferase reporter ZIKV; 10 µM) [%],EC50 (luciferase reporter ZIKV) [µM],Titer Reduction Assay % at 8.5 µM (ZIKV; 8.5 µM) [%],EC50 (ZIKV) [µM],ZIKV Reporter Assay Viability (%) at 10 µM (Huh7 cells; 10 µM) [%],CC50 (Huh7 cells) [µM]
Cc1cc(N)c2cc(NC(=O)Nc3ccc4nc(C)cc(N)c4c3)ccc2n1 [NSC 12155],68,2.18,72,7.34,70,23
O=[N+]([O-])c1ccc(Cn2ccc3c(NCc4cccc(Cl)c4)ncnc32)cc1 [Compound 1],–,–,–,5.2,–,20
